In patent publication US20100234310A1, “ESTROGENIC COMPOUNDS AND THEIR METHODS OF USE” (Bionovo, Inc., priority 2009, published 2010):

How the values were obtained:
breast cancer cells = test: Activity in cancerous cells, in particular breast cancer cells, in vitro; assay type: cell-based
ER-β = molecular target: T1, ER-β (Homo sapiens, UniProt Q92731); test: ER-β specific assay: ER-β plasmid co-transfected with TNF-RE-tk-Luc or ERE-tk-Luc; assay type: cell-based
T1 construct: expressed in transfected cells
T1 sequence (Q92731 whole entry, species assumed): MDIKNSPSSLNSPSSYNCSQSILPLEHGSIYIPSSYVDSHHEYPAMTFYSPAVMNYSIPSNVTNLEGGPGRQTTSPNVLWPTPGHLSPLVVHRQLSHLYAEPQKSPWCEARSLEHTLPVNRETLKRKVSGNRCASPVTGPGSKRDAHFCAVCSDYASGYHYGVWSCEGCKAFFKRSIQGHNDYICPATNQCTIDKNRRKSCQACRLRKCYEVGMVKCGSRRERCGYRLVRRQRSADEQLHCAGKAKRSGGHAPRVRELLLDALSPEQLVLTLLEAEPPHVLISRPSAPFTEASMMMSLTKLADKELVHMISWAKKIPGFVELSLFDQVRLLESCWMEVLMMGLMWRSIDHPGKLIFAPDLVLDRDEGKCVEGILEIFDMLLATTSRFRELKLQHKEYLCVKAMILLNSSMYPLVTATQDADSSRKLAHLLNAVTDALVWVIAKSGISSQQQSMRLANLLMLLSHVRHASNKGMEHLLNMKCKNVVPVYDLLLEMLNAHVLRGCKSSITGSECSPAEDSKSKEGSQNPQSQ
Description: Purified compounds were analyzed by LC-MS and NMR and data was compared to data acquired from authentic purchased standards.

O=c1cc(-c2ccc(O)cc2)oc2cc(O)cc(O)c12 [Apigenin]
induction of apoptosis (breast cancer cells): active | induction of cell death (breast cancer cells): active | induction of mitochondrial superoxide (breast cancer cells): active

O=c1cc(-c2ccc(O)c(O)c2)oc2cc(O)cc(O)c12 [Luteolin]
estrogenic activity (ER-β-specific) (ER-β): estrogenic activity | generation of reactive oxygen species (breast cancer cells): active | generation/induction of superoxide (breast cancer cells): active | induction of apoptosis (breast cancer cells): active | induction of cell death (breast cancer cells): active | induction of mitochondrial superoxide (breast cancer cells): active

O=C1CC(c2ccc(O)cc2)Oc2cc(O)cc(O)c21 (stereo not shown) [Narigenin]
estrogenic activity (ER-β-specific) (ER-β): estrogenic activity

O=c1c(O[C@@H]2O[C@H](CO)[C@@H](O)[C@H](O)[C@H]2O)c(-c2ccc(O)c(O)c2)oc2cc(O)cc(O)c12 [Quercetin-3-O-β-glucopyranoside]
estrogenic activity (ER-β-specific) (ER-β): estrogenic activity

O=c1c(O)c(-c2ccc(O)c(O)c2)oc2cc(O)cc(O)c12 [Quercetin]
estrogenic activity (ER-β-specific) (ER-β): estrogenic activity

C[C@@H]1O[C@@H](Oc2c(-c3ccc(O)c(O)c3)oc3cc(O)cc(O)c3c2=O)[C@H](O)[C@H](O)[C@H]1O [Quercetrin]
estrogenic activity (ER-β-specific) (ER-β): estrogenic activity
